Assay results from ChEMBL document CHEMBL1153669, “Rs-100235: A high affinity 5-HT4 receptor antagonist” (Bioorg Med Chem Lett, 1995).
Blank lines part the entries; values can stand above or below the molecule they belong to. Calls of active or inactive are those of the source. The calls are words filed in the database; no cut-off is given here.

How the values were obtained:
[1] = target: 5-hydroxytryptamine receptor 4 (Rattus norvegicus) (UniProt Q62758); assay: Antagonist activity against 5-HT4 receptor mediated relaxation of rat carbachol contracted esophageal muscularis mucosae; assay type: functional
5-hydroxytryptamine receptor 4 (Rattus norvegicus), sequence (Q62758 whole entry): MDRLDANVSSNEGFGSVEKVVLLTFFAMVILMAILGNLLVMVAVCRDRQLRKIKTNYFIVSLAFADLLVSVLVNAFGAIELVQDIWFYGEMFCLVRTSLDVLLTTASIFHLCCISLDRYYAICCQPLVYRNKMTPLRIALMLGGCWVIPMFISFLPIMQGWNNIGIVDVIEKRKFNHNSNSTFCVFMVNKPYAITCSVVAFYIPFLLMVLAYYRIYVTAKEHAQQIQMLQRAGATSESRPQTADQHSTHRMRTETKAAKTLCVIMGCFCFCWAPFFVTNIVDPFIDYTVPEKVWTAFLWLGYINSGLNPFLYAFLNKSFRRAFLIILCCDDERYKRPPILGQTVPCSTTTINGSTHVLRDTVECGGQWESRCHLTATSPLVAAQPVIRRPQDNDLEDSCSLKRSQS

[2] = system: Sus scrofa; assay: Antagonism of 5-HT-induced tachycardia in anesthetized, vagotomized Yucatan micropigs at 0.1-300 ug/kg dose administered intravenously; assay type: functional; settings: iv, read-out: ID50 (the source's name)
[3] = system: Sus scrofa; assay: Antagonism of 5-HT-induced tachycardia in anesthetized, vagotomized Yucatan micropigs at 3-3000 ug/kg dose administered intraduodenally; no effect; assay type: functional, organism-based
[4] = Compound was tested for its half-life period at an intravenous dose of 30 ug/kg; assay type: ADME, organism-based, Sus scrofa; settings: pig, in vivo, 0.03 mg/kg
[5] = target: T1, 5-hydroxytryptamine receptor 1A (Mus musculus, UniProt Q64264); assay: Compound was evaluated for binding affinity against 5-hydroxytryptamine 1A receptor using radioligand binding assay
T1 sequence (Q64264 whole entry): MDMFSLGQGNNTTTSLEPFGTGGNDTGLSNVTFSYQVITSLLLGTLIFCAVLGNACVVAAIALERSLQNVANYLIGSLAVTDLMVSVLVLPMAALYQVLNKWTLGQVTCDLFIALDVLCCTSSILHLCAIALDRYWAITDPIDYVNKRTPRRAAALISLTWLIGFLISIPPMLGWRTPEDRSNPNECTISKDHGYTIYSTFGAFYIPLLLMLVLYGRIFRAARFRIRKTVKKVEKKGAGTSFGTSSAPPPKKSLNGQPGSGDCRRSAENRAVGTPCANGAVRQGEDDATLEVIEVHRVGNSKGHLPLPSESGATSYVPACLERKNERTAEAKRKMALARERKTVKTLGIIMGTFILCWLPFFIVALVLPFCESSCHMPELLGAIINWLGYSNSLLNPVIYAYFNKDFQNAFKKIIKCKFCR

[6] = target: 5-hydroxytryptamine receptor 2A (Homo sapiens, UniProt P28223); assay: Compound was evaluated for binding affinity against 5-hydroxytryptamine 2A receptor using radioligand binding assay
5-hydroxytryptamine receptor 2A, sequence (P28223 whole entry): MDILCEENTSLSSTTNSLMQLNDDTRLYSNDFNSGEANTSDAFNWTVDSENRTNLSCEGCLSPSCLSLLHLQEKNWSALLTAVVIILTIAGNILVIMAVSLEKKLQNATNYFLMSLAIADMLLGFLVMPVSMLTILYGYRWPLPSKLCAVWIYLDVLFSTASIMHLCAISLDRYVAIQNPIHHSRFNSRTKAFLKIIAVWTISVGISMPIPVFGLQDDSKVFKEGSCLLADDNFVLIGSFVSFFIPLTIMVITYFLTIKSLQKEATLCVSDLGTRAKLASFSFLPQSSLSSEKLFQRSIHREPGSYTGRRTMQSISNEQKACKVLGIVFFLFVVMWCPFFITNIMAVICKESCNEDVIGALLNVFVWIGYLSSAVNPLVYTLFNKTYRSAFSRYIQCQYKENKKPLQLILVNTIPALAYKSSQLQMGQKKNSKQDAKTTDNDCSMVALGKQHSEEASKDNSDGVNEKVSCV

[7] = target: Serotonin 3 (5-HT3) receptor; assay: Compound was evaluated for binding affinity against 5-hydroxytryptamine 3 receptor using radioligand binding assay; assay type: protein-complex assay
[8] = target: T2, 5-hydroxytryptamine receptor 2C (Homo sapiens, UniProt P28335); assay: Compound was evaluated for binding affinity against 5-hydroxytryptamine 2C receptor using radioligand binding assay
T2 sequence (P28335 whole entry): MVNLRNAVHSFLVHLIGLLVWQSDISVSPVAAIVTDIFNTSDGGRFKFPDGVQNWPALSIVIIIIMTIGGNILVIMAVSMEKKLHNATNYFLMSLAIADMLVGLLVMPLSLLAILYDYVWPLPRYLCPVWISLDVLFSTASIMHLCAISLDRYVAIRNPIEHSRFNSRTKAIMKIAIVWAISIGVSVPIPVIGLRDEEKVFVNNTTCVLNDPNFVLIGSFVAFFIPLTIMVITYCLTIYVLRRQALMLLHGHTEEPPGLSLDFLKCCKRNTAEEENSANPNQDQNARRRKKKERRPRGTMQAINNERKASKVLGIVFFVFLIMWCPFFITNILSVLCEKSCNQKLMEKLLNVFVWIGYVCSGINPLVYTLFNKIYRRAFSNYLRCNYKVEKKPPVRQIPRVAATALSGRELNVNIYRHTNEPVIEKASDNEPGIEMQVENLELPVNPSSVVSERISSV

[9] = Compound was tested for its half-life period at an intravenous dose of 3 ug/kg; assay type: ADME, organism-based, Sus scrofa; settings: pig, in vivo, 0.003 mg/kg
[10] = target: T3, Type-2 angiotensin II receptor (Homo sapiens, UniProt P50052); assay: Compound was evaluated for binding affinity against Angiotensin II receptor, type 2 using radioligand binding assay
T3 sequence (P50052 whole entry): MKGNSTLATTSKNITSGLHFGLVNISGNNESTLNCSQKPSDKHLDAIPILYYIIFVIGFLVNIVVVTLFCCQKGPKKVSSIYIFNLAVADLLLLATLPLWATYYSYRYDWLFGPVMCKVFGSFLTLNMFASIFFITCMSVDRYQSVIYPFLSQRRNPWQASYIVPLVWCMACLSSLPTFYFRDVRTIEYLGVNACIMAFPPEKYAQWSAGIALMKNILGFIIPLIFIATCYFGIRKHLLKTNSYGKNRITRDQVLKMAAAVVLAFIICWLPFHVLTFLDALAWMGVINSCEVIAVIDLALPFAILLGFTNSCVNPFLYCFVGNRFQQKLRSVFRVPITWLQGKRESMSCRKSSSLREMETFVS

[11] = target: T4, Alpha-1B adrenergic receptor (Homo sapiens, UniProt P35368); assay: Compound was evaluated for binding affinity against Alpha-1B adrenergic receptor using radioligand binding assay
T4 sequence (P35368 whole entry): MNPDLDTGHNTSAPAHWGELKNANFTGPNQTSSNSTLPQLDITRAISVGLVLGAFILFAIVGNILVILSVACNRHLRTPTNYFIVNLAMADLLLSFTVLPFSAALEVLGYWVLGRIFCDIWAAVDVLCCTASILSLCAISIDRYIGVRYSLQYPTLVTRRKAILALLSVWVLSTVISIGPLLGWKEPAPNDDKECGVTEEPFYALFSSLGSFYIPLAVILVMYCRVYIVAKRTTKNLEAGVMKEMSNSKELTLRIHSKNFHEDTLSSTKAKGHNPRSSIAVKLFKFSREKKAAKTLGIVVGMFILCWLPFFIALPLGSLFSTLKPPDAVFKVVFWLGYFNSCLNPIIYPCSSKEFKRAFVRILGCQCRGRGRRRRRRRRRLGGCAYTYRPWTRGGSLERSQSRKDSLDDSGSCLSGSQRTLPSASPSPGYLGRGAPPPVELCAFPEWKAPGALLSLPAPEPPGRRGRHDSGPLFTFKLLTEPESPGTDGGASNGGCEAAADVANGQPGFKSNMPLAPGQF

[12] = target: T5, Alpha-1A adrenergic receptor (Homo sapiens, UniProt P35348); assay: Compound was evaluated for binding affinity against Alpha-1C adrenergic receptor using radioligand binding assay
T5 sequence (P35348 whole entry): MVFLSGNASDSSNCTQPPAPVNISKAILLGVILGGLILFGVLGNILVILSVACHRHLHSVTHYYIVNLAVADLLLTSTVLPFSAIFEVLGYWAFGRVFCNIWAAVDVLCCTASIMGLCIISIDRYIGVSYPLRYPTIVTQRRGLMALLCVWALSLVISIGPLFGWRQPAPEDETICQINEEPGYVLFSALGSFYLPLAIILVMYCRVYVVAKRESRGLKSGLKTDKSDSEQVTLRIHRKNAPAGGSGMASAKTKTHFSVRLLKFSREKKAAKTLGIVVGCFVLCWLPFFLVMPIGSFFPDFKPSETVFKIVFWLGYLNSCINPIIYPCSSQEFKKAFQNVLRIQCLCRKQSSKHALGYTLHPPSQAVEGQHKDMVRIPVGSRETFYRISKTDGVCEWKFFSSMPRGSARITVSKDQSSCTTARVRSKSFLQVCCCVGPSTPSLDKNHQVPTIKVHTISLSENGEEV

[13] = target: T6, Alpha-2B adrenergic receptor (Homo sapiens, UniProt P18089); assay: Compound was evaluated for binding affinity against Alpha-2B adrenergic receptor using radioligand binding assay
T6 sequence (P18089 whole entry): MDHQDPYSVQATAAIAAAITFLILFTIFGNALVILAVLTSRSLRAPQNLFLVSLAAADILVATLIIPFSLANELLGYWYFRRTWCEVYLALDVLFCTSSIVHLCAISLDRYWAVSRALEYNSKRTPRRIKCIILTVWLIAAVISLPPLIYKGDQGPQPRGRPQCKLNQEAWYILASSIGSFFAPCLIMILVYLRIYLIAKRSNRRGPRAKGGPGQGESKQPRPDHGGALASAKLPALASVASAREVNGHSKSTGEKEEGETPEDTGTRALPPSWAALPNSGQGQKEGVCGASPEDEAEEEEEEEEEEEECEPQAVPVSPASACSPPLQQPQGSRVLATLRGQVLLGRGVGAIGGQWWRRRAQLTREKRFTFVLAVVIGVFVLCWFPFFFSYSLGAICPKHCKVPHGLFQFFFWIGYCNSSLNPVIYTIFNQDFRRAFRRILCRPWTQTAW

[14] = target: D(2) dopamine receptor (Homo sapiens, UniProt P14416); assay: Compound was evaluated for binding affinity against Dopamine D2 receptor using radioligand binding assay
D(2) dopamine receptor, sequence (P14416 whole entry): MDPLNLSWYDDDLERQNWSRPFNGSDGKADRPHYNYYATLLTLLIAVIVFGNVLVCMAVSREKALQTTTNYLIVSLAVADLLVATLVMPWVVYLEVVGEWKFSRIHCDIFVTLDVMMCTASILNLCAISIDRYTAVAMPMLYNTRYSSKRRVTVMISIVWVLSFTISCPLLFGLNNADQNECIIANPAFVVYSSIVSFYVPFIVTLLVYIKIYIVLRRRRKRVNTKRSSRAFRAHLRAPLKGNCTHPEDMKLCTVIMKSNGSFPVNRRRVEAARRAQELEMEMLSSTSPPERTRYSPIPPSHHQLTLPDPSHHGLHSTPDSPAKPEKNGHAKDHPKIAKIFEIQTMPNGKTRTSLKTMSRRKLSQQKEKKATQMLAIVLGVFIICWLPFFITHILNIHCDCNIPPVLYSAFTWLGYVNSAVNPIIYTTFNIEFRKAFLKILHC

[15] = target: D(1A) dopamine receptor (Homo sapiens, UniProt P21728); assay: Compound was evaluated for binding affinity against Dopamine D1 receptor using radioligand binding assay
D(1A) dopamine receptor, sequence (P21728 whole entry): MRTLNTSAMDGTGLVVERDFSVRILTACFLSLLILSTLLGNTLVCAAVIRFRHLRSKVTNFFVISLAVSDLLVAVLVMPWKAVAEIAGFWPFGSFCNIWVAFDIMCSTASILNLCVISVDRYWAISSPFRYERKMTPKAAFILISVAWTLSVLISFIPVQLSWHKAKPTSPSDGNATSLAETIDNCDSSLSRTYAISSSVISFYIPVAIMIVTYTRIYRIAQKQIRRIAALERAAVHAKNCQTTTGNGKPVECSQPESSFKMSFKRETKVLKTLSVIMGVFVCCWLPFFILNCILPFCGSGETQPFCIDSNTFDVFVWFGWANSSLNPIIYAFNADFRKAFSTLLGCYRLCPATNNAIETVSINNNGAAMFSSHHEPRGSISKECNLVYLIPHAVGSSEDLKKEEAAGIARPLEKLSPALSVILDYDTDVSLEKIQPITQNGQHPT

[16] = target: Muscarinic acetylcholine receptor M3 (Homo sapiens, UniProt P20309); assay: Compound was evaluated for binding affinity against Muscarinic M3 receptor using radioligand binding assay
Muscarinic acetylcholine receptor M3, sequence (P20309 whole entry): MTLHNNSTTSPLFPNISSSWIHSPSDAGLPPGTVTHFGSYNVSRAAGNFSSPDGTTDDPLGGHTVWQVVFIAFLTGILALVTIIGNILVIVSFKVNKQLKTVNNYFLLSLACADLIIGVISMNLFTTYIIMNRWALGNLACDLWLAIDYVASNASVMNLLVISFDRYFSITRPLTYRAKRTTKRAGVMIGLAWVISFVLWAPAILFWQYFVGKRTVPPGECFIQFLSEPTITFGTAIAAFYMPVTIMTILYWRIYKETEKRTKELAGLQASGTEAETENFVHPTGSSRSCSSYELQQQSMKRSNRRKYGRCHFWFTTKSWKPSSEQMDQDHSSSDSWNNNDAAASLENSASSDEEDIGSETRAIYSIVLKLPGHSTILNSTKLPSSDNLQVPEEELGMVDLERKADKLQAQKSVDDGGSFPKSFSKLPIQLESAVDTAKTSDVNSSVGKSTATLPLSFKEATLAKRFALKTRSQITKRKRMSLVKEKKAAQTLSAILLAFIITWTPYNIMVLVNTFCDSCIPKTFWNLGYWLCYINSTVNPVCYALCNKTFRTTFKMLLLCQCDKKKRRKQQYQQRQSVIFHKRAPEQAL

[17] = target: T7, Muscarinic acetylcholine receptor M2 (Homo sapiens, UniProt P08172); assay: Compound was evaluated for binding affinity against Muscarinic M2 receptor using radioligand binding assay
T7 sequence (P08172 whole entry): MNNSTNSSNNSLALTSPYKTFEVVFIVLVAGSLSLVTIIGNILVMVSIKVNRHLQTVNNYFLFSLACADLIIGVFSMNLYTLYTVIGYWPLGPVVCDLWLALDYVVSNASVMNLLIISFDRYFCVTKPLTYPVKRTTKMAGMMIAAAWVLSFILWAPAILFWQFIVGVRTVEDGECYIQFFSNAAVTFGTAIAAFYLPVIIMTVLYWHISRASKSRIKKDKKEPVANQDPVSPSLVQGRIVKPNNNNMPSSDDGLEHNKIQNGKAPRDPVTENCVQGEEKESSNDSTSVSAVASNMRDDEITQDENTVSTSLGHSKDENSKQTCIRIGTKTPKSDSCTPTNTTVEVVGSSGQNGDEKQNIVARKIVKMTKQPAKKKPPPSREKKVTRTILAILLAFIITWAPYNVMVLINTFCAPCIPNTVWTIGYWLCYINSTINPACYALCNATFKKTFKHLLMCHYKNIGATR

[18] = target: T8, Muscarinic acetylcholine receptor M1 (Homo sapiens, UniProt P11229); assay: Compound was evaluated for binding affinity against Muscarinic M1 receptor using radioligand binding assay
T8 sequence (P11229 whole entry): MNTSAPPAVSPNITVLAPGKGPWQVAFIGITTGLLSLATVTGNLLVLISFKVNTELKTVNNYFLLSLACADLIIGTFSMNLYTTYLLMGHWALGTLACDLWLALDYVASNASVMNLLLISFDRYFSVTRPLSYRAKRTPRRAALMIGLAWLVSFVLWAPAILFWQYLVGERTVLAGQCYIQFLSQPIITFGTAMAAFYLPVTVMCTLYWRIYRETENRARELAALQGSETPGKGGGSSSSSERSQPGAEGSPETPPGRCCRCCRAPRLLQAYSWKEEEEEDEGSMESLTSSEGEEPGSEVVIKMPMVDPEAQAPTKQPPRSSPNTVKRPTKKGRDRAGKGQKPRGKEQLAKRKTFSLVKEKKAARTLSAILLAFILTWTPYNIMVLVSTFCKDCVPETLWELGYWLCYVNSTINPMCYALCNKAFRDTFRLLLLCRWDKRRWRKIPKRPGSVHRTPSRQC

[19] = system: Sus scrofa; assay: Antagonism of 5-HT-induced tachycardia in anesthetized, vagotomized Yucatan micropigs at 0.03-10 ug/kg dose administered intravenously; assay type: functional; settings: iv, read-out: ID50 (the source's name)
[20] = system: Sus scrofa; assay: Antagonism of 5-HT-induced tachycardia in anesthetized, vagotomized Yucatan micropigs at 0.1-30 ug/kg dose administered intraduodenally; assay type: functional; settings: intraduodenal, read-out: ID50 (the source's name)
[21] = target: T9, Type-1 angiotensin II receptor (Homo sapiens, UniProt P30556); assay: Compound was evaluated for binding affinity against Angiotensin II receptor, type 1 using radioligand binding assay
T9 sequence (P30556 whole entry): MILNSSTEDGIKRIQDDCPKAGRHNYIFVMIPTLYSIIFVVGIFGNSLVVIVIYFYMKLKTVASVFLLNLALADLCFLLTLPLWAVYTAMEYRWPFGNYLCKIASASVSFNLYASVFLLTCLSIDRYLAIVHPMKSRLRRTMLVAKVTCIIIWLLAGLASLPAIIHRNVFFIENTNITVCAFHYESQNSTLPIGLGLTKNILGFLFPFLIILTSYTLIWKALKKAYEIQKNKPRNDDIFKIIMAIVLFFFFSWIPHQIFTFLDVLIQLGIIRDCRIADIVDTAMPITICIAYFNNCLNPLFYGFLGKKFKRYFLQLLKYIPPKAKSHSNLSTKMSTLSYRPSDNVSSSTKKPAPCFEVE

[22] = target: 5-hydroxytryptamine receptor 4 (Cavia porcellus, UniProt O70528); assay: Compound was evaluated for binding affinity against 5-hydroxytryptamine 4 receptor using radioligand binding assay using [3H]GR as radioligand
5-hydroxytryptamine receptor 4, sequence (O70528 whole entry): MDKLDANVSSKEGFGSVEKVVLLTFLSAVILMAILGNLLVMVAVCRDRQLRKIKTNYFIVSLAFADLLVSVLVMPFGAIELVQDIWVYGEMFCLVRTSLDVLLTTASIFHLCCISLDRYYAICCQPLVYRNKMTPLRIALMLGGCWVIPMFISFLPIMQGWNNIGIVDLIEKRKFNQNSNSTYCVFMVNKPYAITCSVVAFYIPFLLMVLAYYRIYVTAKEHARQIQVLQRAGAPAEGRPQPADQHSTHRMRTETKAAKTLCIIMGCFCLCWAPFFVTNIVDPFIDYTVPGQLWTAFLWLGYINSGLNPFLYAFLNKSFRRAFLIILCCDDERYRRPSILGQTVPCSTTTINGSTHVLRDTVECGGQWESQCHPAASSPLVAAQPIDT

[23] = target: T10, Alpha-2A adrenergic receptor (Homo sapiens, UniProt P08913); assay: Compound was evaluated for binding affinity against Alpha-2A adrenergic receptor using radioligand binding assay
T10 sequence (P08913 whole entry): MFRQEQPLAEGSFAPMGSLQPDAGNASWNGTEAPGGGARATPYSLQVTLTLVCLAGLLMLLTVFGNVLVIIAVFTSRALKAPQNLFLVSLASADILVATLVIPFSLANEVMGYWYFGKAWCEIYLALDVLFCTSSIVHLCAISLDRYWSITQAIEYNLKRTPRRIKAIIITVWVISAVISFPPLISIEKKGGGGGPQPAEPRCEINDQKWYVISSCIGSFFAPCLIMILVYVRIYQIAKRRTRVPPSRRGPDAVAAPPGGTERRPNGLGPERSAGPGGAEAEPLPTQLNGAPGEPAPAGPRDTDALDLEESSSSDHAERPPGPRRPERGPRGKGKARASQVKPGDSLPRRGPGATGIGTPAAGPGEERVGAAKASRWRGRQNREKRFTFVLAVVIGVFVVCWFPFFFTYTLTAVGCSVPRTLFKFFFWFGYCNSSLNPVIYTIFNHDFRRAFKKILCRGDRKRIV

pKb [1]: 10.3 | half-life [4]: < 2.5 h
SMILES: CCCCN1CCC(COC(=O)c2cc(Cl)c(N)c3c2OCCO3)CC1
ED50 [2]: 8 µg/kg | ID50 [3]: inactive

Ki [5]: 1000 nM | Ki [6]: 501 nM | Log Ki [7]: -6.3 | Ki [8]: 1580 nM | half-life [9]: > 6 h | Ki [10]: > 10000 nM | Ki [11]: 501 nM | Ki [12]: 316 nM | Ki [13]: 2510 nM | Ki [14]: 316 nM | Ki [15]: > 10000 nM | Ki [16]: 2000 nM | Ki [17]: 1260 nM | Ki [18]: 1580 nM | Ki [21]: > 10000 nM | Ki [22]: 0.1 nM | Ki [23]: 100 nM
SMILES: COc1ccc(CCCN2CCC(CCC(=O)c3cc(Cl)c(N)c4c3OCCO4)CC2)cc1OC
ED50 [19]: 0.55 µg/kg | ED50 [20]: 1.52 µg/kg

pKb [1]: 9
SMILES: Cn1cc(C(=O)OCC2CCN(CCNS(C)(=O)=O)CC2)c2ccccc21

pKb [1]: 10.6
SMILES: COc1ccc(CCCN2CCC(CCC(=O)c3cc(Cl)c(N)c4c3OCCO4)CC2)cc1
